The record followed here is patent US20250026752A1, “POSITIVE ALLOSTERIC MODULATORS OF THE MUSCARINIC ACETYLCHOLINE RECEPTOR M4” (Vanderbilt University, priority 2021, published 2025).

Structures are written as SMILES.

The experiment addresses T1, human mAChR M4 (Homo sapiens, UniProt P08173).
T1 construct: expressed in transfected cells; host or cells: CHO-K1 (ATCC), stably expressing hM4 and Gqi5
T1 sequence (P08173 1-479): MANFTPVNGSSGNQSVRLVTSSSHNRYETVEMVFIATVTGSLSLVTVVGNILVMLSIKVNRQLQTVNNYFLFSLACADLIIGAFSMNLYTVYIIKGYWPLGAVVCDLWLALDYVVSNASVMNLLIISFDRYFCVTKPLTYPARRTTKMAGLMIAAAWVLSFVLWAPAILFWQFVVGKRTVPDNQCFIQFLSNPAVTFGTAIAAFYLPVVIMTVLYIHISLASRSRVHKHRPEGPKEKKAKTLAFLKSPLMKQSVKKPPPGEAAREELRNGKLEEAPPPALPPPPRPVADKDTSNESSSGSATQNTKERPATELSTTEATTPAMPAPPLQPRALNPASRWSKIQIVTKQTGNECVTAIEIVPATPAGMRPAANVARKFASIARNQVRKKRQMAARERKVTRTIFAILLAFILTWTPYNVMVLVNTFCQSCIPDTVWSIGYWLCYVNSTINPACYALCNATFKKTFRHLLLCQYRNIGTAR
Description: mAChR M4 cell-based functional assay: calcium flux (Fluo-4, FDSS), positive allosteric modulator activity on the EC20 acetylcholine response, hM4-Gqi5 CHO-K1 cells. The note with it: for Emax at 30 µM: CHO-K1, human M4, % ACh maximum at 30 μM; for EC50: human M4, PAM activity on EC20 acetylcholine response, calcium flux, read-out: Human M4 EC50. In a few lines:
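Potentiation was taken as the concentration-dependent rise in the EC20 acetylcholine calcium response, fitted by a four-parameter logistic with EC20 as baseline. Fluo-4-loaded hM4-Gqi5 CHO-K1 cells received 11-point, threefold-diluted compound before acetylcholine at 144 s; FDSS read at 1 Hz.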

One may read the Emax as the greatest response seen or fitted, relative to the assay's reference. As a reminder, the EC50 is the concentration that produces a half-maximal response. Turning to `Cc1nc(N2CCc3ncc(-c4ccc(N(C)C)nc4)cc3C2)c2cc(F)ccc2n1` [Compound 24, 5-[6-(6-fluoro-2-methyl-quinazolin-4-yl)-7,8-dihydro-5H-1,6-naphthyridin-3-yl]-N,N-dimethyl-pyridin-2-amine], the Emax at 30 µM stood at 92% and the EC50 turned out to be 590 nM.

For the compound `Cc1cnn(C)c1-c1cnc2c(c1)CN(c1ncnc3ccc(F)cc13)CC2` [Compound 266, 4-(3-(1,4-dimethyl-1H-pyrazol-5-yl)-7,8-dihydro-1,6-naphthyridin-6(5H)-yl)-6-fluoroquinazoline], the Emax at 30 µM came to 90% and the EC50 was found to be 60 nM.

`Fc1ccc2c(N3CCc4ncc(C(F)(F)F)cc4C3)ncnc2c1` [Compound 137, 7-fluoro-4-[3-(trifluoromethyl)-7,8-dihydro-5H-1,6-naphthyridin-6-yl]quinazoline]: the Emax at 30 µM was found to be 83% and the EC50 is 430 nM.

Regarding `Cn1nccc1Nc1cnc2c(c1)CN(c1ncnc3ccc(F)cc13)CC2` [Compound 75, 6-(6-fluoroquinazolin-4-yl)-N-(2-methylpyrazol-3-yl)-7,8-dihydro-5H-1,6-naphthyridin-3-amine], the Emax at 30 µM came to 100% and the EC50 worked out at 30 nM.

As for `CC(O)(c1cnc2c(c1)CN(c1ncnc3cc(F)c(F)cc13)CC2)C(F)(F)F` (stereo not drawn) [Compound 290, 2-(6-(6,7-difluoroquinazolin-4-yl)-5,6,7,8-tetrahydro-1,6-naphthyridin-3-yl)-1,1,1-trifluoropropan-2-ol], the Emax at 30 µM was 91% and the concentration giving a half-maximal response (EC50) was found to be 200 nM.

For the compound `COc1ccc2ncnc(N3CCc4ncc(-c5cc(F)ccc5C)cc4C3)c2c1` [Compound 297, 4-(3-(5-fluoro-2-methylphenyl)-7,8-dihydro-1,6-naphthyridin-6(5H)-yl)-6-methoxyquinazoline], the Emax at 30 µM was determined as 101% and the EC50 stood at 1550 nM.

`Fc1cc2ncnc(N3CCc4ncc(CC(F)(F)F)cc4C3)c2cc1F` [Compound 286, 6,7-difluoro-4-(3-(2,2,2-trifluoroethyl)-7,8-dihydro-1,6-naphthyridin-6(5H)-yl)quinazoline]: the Emax at 30 µM is 97% and the EC50 turned out to be 170 nM.

On to `Fc1ccc2nc(C(F)(F)F)nc(N3CCc4ncc(N5CCCn6nccc65)cc4C3)c2c1` [Compound 111, 4-[3-(6,7-dihydro-5H-pyrazolo[1,5-a]pyrimidin-4-yl)-7,8-dihydro-5H-1,6-naphthyridin-6-yl]-6-fluoro-2-(trifluoromethyl)quinazoline], for which the Emax at 30 µM was found to be 82% and the EC50 stood at 400 nM.

In the case of `Cc1cc(F)ncc1-c1cnc2c(c1)CN(c1ncnc3ccc(Cl)cc13)CC2` [Compound 310, 6-chloro-4-(3-(6-fluoro-4-methylpyridin-3-yl)-7,8-dihydro-1,6-naphthyridin-6(5H)-yl)quinazoline], the Emax at 30 µM came to 86% and the EC50 worked out at 60 nM.

`[2H]c1nc(N2CCc3ncc(-c4cnc(C)s4)cc3C2)c2cc(C)ccc2n1` [Compound 174, 5-[6-(2-deuterio-6-methyl-quinazolin-4-yl)-7,8-dihydro-5H-1,6-naphthyridin-3-yl]-2-methyl-thiazole]: the Emax at 30 µM was 82% and the EC50 was found to be 140 nM.

Turning to `Cc1ccc(-c2cnc3c(c2)CN(c2nc(Cl)nc4cc(Cl)c(F)cc24)CC3)cn1` [Compound 63, 2,7-dichloro-6-fluoro-4-[3-(6-methyl-3-pyridyl)-7,8-dihydro-5H-1,6-naphthyridin-6-yl]quinazoline], the Emax at 30 µM was determined as 26% and the EC50 came to 400 nM.

In the case of `Cc1nc(N2Cc3cc(C(F)(F)F)cnc3C(C)C2)c2cc(F)ccc2n1` (stereo not drawn) [Compound 157, 6-fluoro-2-methyl-4-[8-methyl-3-(trifluoromethyl)-7,8-dihydro-5H-1,6-naphthyridin-6-yl]quinazoline], the Emax at 30 µM was found to be 95% and the EC50 worked out at 220 nM.

Take `FC(F)(F)c1ccc2ncnc(N3CCc4ncc(N5CCOc6ncccc65)cc4C3)c2c1` [Compound 215, 1-(6-(6-(trifluoromethyl)quinazolin-4-yl)-5,6,7,8-tetrahydro-1,6-naphthyridin-3-yl)-2,3-dihydro-1H-pyrido[2,3-b][1,4]oxazine]: the Emax at 30 µM is 107% and the EC50 came to 1610 nM.

For the compound `Cn1nccc1Nc1cnc2c(c1)CN(c1nc(NCC(C)(C)O)nc3ccc(F)cc13)CC2` [Compound 212, 1-[[6-fluoro-4-[3-[(2-methylpyrazol-3-yl)amino]-7,8-dihydro-5H-1,6-naphthyridin-6-yl]quinazolin-2-yl]amino]-2-methyl-propan-2-ol], the Emax at 30 µM stood at 90% and the EC50 was found to be 190 nM.

Take `Fc1ccc2ncnc(N3CCc4ncc(N5CCOC(c6cccnc6)C5)cc4C3)c2c1` (stereo not drawn) [Compound 229, 4-(6-(6-fluoroquinazolin-4-yl)-5,6,7,8-tetrahydro-1,6-naphthyridin-3-yl)-2-(pyridin-3-yl)morpholine]: the Emax at 30 µM amounted to 86% and the EC50 was found to be 510 nM.

Turning to `OC1(C2CC2)CN(c2nc(N3CCc4ncc(C(F)(F)F)cc4C3)c3cc(F)ccc3n2)C1` [Compound 201, 3-cyclopropyl-1-[6-fluoro-4-[3-(trifluoromethyl)-7,8-dihydro-5H-1,6-naphthyridin-6-yl]quinazolin-2-yl]azetidin-3-ol], the Emax at 30 µM came out at 97% and the EC50 was found to be 290 nM.

Consider `Fc1ccc2ncnc(N3CCc4ncc(Nc5cccnc5F)cc4C3)c2c1` [Compound 82, N-(2-fluoro-3-pyridyl)-6-(6-fluoroquinazolin-4-yl)-7,8-dihydro-5H-1,6-naphthyridin-3-amine], for which the Emax at 30 µM was 104% and the EC50 stood at 70 nM.

For `Cc1cnn(C)c1-c1cnc2c(c1)CN(c1ncnc3cc(F)c(F)cc13)CC2` [Compound 270, 4-(3-(1,4-dimethyl-1H-pyrazol-5-yl)-7,8-dihydro-1,6-naphthyridin-6(5H)-yl)-6,7-difluoroquinazoline], the Emax at 30 µM is 86% and the EC50 was 100 nM.

As for `Cc1ccc(F)c(Oc2cnc3c(c2)CN(c2nc(C)nc4ccc(Cl)cc24)CC3)c1` [Compound 154, 6-chloro-4-[3-(2-fluoro-5-methyl-phenoxy)-7,8-dihydro-5H-1,6-naphthyridin-6-yl]-2-methyl-quinazoline], the Emax at 30 µM was 62% and the EC50 was 7690 nM.

Consider `Cc1nc(N2CCc3ncc(CC(F)(F)F)cc3C2)c2cc(Cl)ccc2n1` [Compound 287, 6-chloro-2-methyl-4-(3-(2,2,2-trifluoroethyl)-7,8-dihydro-1,6-naphthyridin-6(5H)-yl)quinazoline], for which the Emax at 30 µM was 85% and the EC50 was found to be 360 nM.

Regarding `Cc1nn(C)cc1-c1cnc2c(c1)CN(c1nc(-c3cn(C)nc3C)nc3ccc(Cl)cc13)CC2` [Compound 188, 6-chloro-2-(1,3-dimethylpyrazol-4-yl)-4-[3-(1,3-dimethylpyrazol-4-yl)-7,8-dihydro-5H-1,6-naphthyridin-6-yl]quinazoline], the Emax at 30 µM was found to be 68% and the EC50 came to 1910 nM.

Regarding `Cn1nccc1Nc1cnc2c(c1)CN(c1nc(NC3CCCOC3)nc3ccc(F)cc13)CC2` (stereo not drawn) [Compound 213, 6-fluoro-4-[3-[(2-methylpyrazol-3-yl)amino]-7,8-dihydro-5H-1,6-naphthyridin-6-yl]-N-tetrahydropyran-3-yl-quinazolin-2-amine], the Emax at 30 µM stood at 86% and the EC50 turned out to be 490 nM.

On to `Cc1nn(C)cc1-c1cnc2c(c1)CN(c1nc(Cl)nc3ccc(F)cc13)CC2` [Compound 31, 2-chloro-4-[3-(1,3-dimethylpyrazol-4-yl)-7,8-dihydro-5H-1,6-naphthyridin-6-yl]-6-fluoro-quinazoline], for which the Emax at 30 µM is 95% and the EC50 was determined as 230 nM.

Consider `Cc1nc(N2CCc3ncc(C(F)(F)F)cc3C2)c2cc(F)ccc2n1` [Compound 130, 6-fluoro-2-methyl-4-[3-(trifluoromethyl)-7,8-dihydro-5H-1,6-naphthyridin-6-yl]quinazoline], for which the Emax at 30 µM stood at 86% and the EC50 amounted to 80 nM.

Take `Fc1ccc2ncnc(N3CCc4ncc(N5CCCn6nc(C(F)(F)F)cc65)cc4C3)c2c1` [Compound 276, 6-fluoro-4-(3-(2-(trifluoromethyl)-6,7-dihydropyrazolo[1,5-a]pyrimidin-4(5H)-yl)-7,8-dihydro-1,6-naphthyridin-6(5H)-yl)quinazoline]: the Emax at 30 µM was 96% and the EC50 was 320 nM.

Regarding `Fc1ncccc1Nc1cnc2c(c1)CN(c1nc(Cl)nc3ccc(Cl)cc13)CC2` [Compound 88, 6-(2,6-dichloroquinazolin-4-yl)-N-(2-fluoro-3-pyridyl)-7,8-dihydro-5H-1,6-naphthyridin-3-amine], the Emax at 30 µM turned out to be 103% and the EC50 was 1070 nM.

Take `[2H]C1([2H])N(c2cnc3c(c2)CN(c2ncnc4ccc(F)cc24)CC3)c2ccnn2C([2H])([2H])C1([2H])[2H]` [Compound 281, 4-(3-(6,7-dihydropyrazolo[1,5-a]pyrimidin-4(5H)-yl-5,5,6,6,7,7-d6)-7,8-dihydro-1,6-naphthyridin-6(5H)-yl)-6-fluoroquinazoline]: the Emax at 30 µM came out at 104% and the EC50 came out at 30 nM.
